Measured values: patent publication US7531671B2, “Dihydroisoindolones as allosteric modulators of glucokinase” (Janssen Pharmaceutica N.V., priority 2005, dated 2009)
Where “and” joins values, the source holds several entries; their conditions need not be identical. Equal values may be shown once.

Biological target: T1, human liver Glucokinase (GK) (Homo sapiens, UniProt P35557)
T1 construct: (His)6; made in house; host or cells: Escherichia coli
T1 sequence (P35557 1-466 isoform P35557-2): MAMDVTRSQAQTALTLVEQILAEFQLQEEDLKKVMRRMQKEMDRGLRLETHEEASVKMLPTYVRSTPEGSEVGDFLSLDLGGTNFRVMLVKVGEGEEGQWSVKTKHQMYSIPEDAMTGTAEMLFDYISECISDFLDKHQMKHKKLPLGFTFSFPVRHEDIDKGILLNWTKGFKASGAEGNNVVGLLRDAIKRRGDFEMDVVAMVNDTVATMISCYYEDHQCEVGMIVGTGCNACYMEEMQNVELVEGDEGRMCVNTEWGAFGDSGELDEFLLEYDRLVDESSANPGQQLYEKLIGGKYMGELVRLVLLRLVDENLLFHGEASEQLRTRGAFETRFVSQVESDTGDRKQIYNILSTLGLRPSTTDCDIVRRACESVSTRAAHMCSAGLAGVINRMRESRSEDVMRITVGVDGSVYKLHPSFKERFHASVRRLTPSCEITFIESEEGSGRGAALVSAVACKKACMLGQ
Test: Glucokinase enzyme assay, Liver GK data
Format: biochemical
Details: for EC50: concentration producing 50% activation above vehicle control; for EC100%: concentration producing 100% activation above vehicle control
Source text: An enzymatic Glucokinase (GK) assay using purified recombinant human liver/pancreas enzyme was used to evaluate the effects of potential small molecule modulators.
In this assay, GK catalyzes glucose phosphorylation in the presence of ATP. The product of this reaction, glucose-6-phosphate, was then oxidized by an excess of glucose-6-phosphate dehydrogenase to produce gluconate-6-phosphate with concomitant reduction of nicotinamide adenine dinucleotide (NAD). […] Human GK (Liver/Pancreas) was expressed in Escherichia coli as a (His) 6-tagged fusion protein and was purified by metal chelate affinity chromatography. The assay was performed in a final incubation volume of 80 μl in a 96-well clear low UV absorption plates. The incubation mixture consisted of 25 mM HEPES, 2 mM MgSO4, 1 mM dithiothreotol (DTT), 1 mg/ml bovine serum albumin (BSA), 1 mM ATP, 1 mM NAD, and 12 mM glucose, 10 units per ml glucose-6-phosphate dehydrogenase, and +/−300 ng per ml GK. For determination of the affinity (Km) and Vmax, different concentrations of glucose ranging from 0.5 mM to 40 mM were used in the assay; see Grimsby, J., Sarabu, R.; Grippo, J. F.; et. al. Science 2003, 301, 370-373. Production of reduced NAD (Nicotinamide Adenine Dinucleotide) was measured as changes in absorption at 340 nm in 96-well plate reader (Envision model # 2101 Multilabel Plate reader). % Activation @ 50 μM was calculated as the percentage increase in GK activity above the vehicle control with the effective concentration of the compound being 50 μM. EC50% (μM) was calculated as the effective concentration of the compound that produces 50% activation above the vehicle control, and EC100% (μM) was calculated as the effective concentration of the compound that produces 100% activation above the vehicle control.

[1] = compound 50 μM, percentage increase in GK activity above vehicle control, 12 mM glucose

SMILES | EC50 | EC100% | activation at 50 µM [1] [%] | % Activation @ 50 μM [1] [%]
O=C(CSC1c2ccccc2C(=O)N1Cc1cccs1)Nc1nccs1 (centres unmarked) [Compound 14, 2-(3-Oxo-2-thiophen-2-ylmethyl-2,3-dihydro-1H-isoindol-1-ylsulfanyl)-N-thiazol-2-yl-acetamide] | 5 µM | 19.4 µM |  | 
O=C(CSC1c2ccccc2C(=O)N1Cc1cccs1)Nc1ncccn1 (centres unmarked) [Compound 16, 2-(3-Oxo-2-thiophen-2-ylmethyl-2,3-dihydro-1H-isoindol-1-ylsulfanyl)-N-pyrimidin-2-yl-acetamide] |  |  | 13 | 
O=C(CSC1c2ccccc2C(=O)N1Cc1ccccc1)Nc1ccc(C(=O)O)cn1 (centres unmarked) [Compound 19, 6-[2-(2-Benzyl-3-oxo-2,3-dihydro-1H-isoindol-1-ylsulfanyl)-acetyamino]-nicotinic acid] | 3.2 µM |  | 146 | 
O=C(COC1c2ccccc2C(=O)N1Cc1ccccc1)Nc1ccccn1 (centres unmarked) [Compound 23, 2-(2-Benzyl-3-oxo-2,3-dihydro-1H-isoindol-1-yloxy)-N-pyridin-2-yl-acetamide] | 1.76 µM | 8.71 µM | 164 | 
O=C(CNC1c2ccccc2C(=O)N1Cc1ccccc1)Nc1ccccn1 (centres unmarked) [Compound 27, 2-(2-Benzyl-3-oxo-2,3-dihydro-1H-isoindol-1-ylamine)-N-pyridin-2-yl-acetamide] | 1.8 µM and 0.9 µM | 4.5 µM and 2.6 µM |  | 228
O=C(COC1c2ccccc2C(=O)N1Cc1ccccc1)Nc1nccs1 (centres unmarked) [Compound 28, 2-(2-Benzyl-3-oxo-2,3-dihydro-1H-isoindol-1-yloxy)-N-thiazol-2-yl-acetamide] | 11.3 µM |  | 73 | 
COc1ccc(CN2C(=O)c3ccccc3C2SCC(=O)Nc2nccs2)cc1 (centres unmarked) [Compound 29, 2-[2-(4-Methoxybenzyl)-3-oxo-2,3-dihydro-1H-isoindol-1-ylsulfanyl]-N-thiazol-2-yl-acetamide] | 4.4 µM | 17.6 µM | 156 | 
O=C(CSC1c2ccccc2C(=O)N1Cc1ccc(Cl)cc1)Nc1nccs1 (centres unmarked) [Compound 30, 2-[2-(4-Chlorobenzyl)-3-oxo-2,3-dihydro-1H-isoindol-1-ylsulfanyl]-N-thiazol-2-yl-acetamide] | 9.5 µM |  | 102 | 
O=C(CSC1c2ccccc2C(=O)N1Cc1cccs1)Nc1cnccn1 (centres unmarked) [Compound 31, 2-(3-Oxo-2-thiophen-2-ylmethyl-2,3-dihydro-1H-isoindol-1-ylsulfanyl)-N-pyrazin-2-yl-acetamide] | 4 µM | 12 µM | 199 | 

Now from value to molecule:

EC50 | EC100% | activation at 50 µM [1] [%] | % Activation @ 50 μM [1] [%] | SMILES
9.2 µM |  | 113 |  | O=C(CSC1c2ccccc2C(=O)N1Cc1ccco1)Nc1nccs1 (centres unmarked) [Compound 32, 2-(2-Furan-2-ylmethyl-3-oxo-2,3-dihydro-1H-isoindol-1-ylsulfanyl)-N-thiazol-2-yl-acetamide]
2.6 µM |  | 229 |  | CN(C)c1ccc(CN2C(=O)c3ccccc3C2SCC(=O)Nc2nccs2)cc1 (centres unmarked) [Compound 33, 2-[2-(4-Dimethylaminobenzyl)-3-oxo-2,3-dihydro-1H-isoindol-1-ylsulfanyl]-N-thiazol-2-yl-acetamide]
1 µM | 4.1 µM | 180 |  | COC(=O)c1ccc(NC(=O)CSC2c3ccccc3C(=O)N2Cc2cccs2)nc1 (centres unmarked) [Compound 34, 6-[2-(3-Oxo-2-thiophen-2-ylmethyl-2,3-dihydro-1H-isoindol-1-ylsulfanyl)-acetylamino]-nicotinic acid methyl ester]
 | 2.9 µM and 3.0 µM | 171 |  | COC(=O)c1ccc(NC(=O)CSC2c3ccccc3C(=O)N2Cc2ccccc2)nc1 (centres unmarked) [Compound 35, 6-[2-(2-Benzyl-3-oxo-2,3-dihydro-1H-isoindol-1-ylsulfanyl)-acetylamino]-nicotinic acid methyl ester]
9 µM |  | 143 |  | CCOC(=O)Cc1csc(NC(=O)CSC2c3ccccc3C(=O)N2Cc2cccs2)n1 (centres unmarked) [Compound 36, {2-[2-(3-Oxo-2-thiophen-2-ylmethyl-2,3-dihydro-1H-isoindol-1-ylsulfanyl)-acetylamino]-thiazol-4-yl}-acetic acid ethyl ester]
0.57 µM | 1.57 µM | 256 |  | COC(=O)c1ccc(NC(=O)COC2c3ccccc3C(=O)N2Cc2ccccc2)nc1 (centres unmarked) [Compound 37, 6-[2-(2-Benzyl-3-oxo-2,3-dihydro-1H-isoindol-1-yloxy)-acetylamino]-nicotinic acid methyl ester]
